According to patent US9333193B2, “Compositions and methods for treating tuberculosis” (priority 2010, dated 2016):
Values after ≈ are worked out from the molar mass of the structure shown. Where two headings read alike, the source gives them in different places.

Columns and labels:
[1] = tested on: Mycobacterium avium Va14(T); assay: Anti-mycobacterial activity of nitazoxanides, MIC in Middlebrook 7H9; type: cell-based; details: Middlebrook 7H9, 37° C.; for MIC: Mycobacterium avium, read-out: Minimal Inhibitory Concentration, M. avium
Experimental: (§1) (1) Strains: Mycobacterium smegmatis mc2155, Mycobacterium chelonae EOP-1, Mycobacterium marinum ATCC 927, Mycobacterium avium Va14(T), and Mycobacterium abscessus AAy-P-1).
(§2) (2) Medium: Middlebrook 7H9 containing 0.5% (vol/vol) glycerol and 10% (vol/vol) oleic acid-albumin.
(§3) (3) Incubation Temperature: 37° C., except M. marinum 30° C.
(§4) (4) Nitazoxanides: Precipitates were present in wells of nitazoxanides with high concentrations (250-31 μg/mL) except for 162080, 162088, 16b2026, and 16b2031.
(§5) The strains used were Mycobacterium smegmatis mc2155, Mycobacterium chelonae EOP-1, Mycobacterium marinum ATCC 927, Mycobacterium avium Va14(T), and Mycobacterium abscessus AAy-P-1. The medium use was Middlebrook 7H9 containing 0.5% (vol/vol) glycerol and 10% (vol/vol) oleic acid-albumin. Incubation Temperature was 37° C., except for M. marinum at 30° C. For nitazoxanides, precipitates were present in wells of nitazoxanides with high concentrations (250-31 μg/mL) except for 162080, 162088, 16b2026, and 16b2031.

[2] = tested on: Mycobacterium abscessus AAy-P-1; assay: as above; type: cell-based; details: Middlebrook 7H9, 37° C.; for MIC: Mycobacteroides abscessus, AAYP1, read-out: Minimal Inhibitory Concentration, M. abscessus
Experimental: as §1, §2, §3, §4, §5

[3] = tested on: Mycobacterium chelonae EOP-1; assay: as above; type: cell-based; details: Middlebrook 7H9, 37° C.; for MIC: read-out: Minimal Inhibitory Concentration, M. chelonae
Experimental: as §1, §2, §3, §4, §5

[4] = tested on: Mycobacterium marinum ATCC 927; assay: as above; type: cell-based; details: Middlebrook 7H9, 30° C.; for MIC: Mycobacterium marinum, ATCC927, read-out: Minimal Inhibitory Concentration, M. marinum
Experimental: as §1, §2, §3, §4, §5

[5] = tested on: Mycobacterium smegmatis mc2155; assay: as above; type: cell-based; details: Middlebrook 7H9, 37° C.; for MIC: Mycolicibacterium smegmatis, MC2155, read-out: Minimal Inhibitory Concentration, M. smegmatis
Experimental: as §1, §2, §3, §4
(5) Decolorization: Almost all the yellow nitazoxanides, namely 16b1090, 16b1092 and 16b1093, 16b1094, 16b2023, 16b2025, and 16b2026 were decolorized by M. smegmatis strain mc2155. None of the other mycobacterial strains decolorized the compounds. Note that the compound numbers are also referred to herein with the prefix VPC.
as §5
Decolorization: Almost all the yellow nitazoxanides, namely 16b1090, 16b1092 and 16b1093, 16b1094, 16b2023, 16b2025, and 16b2026 were decolorized by M. smegmatis strain mc2155. None of the other mycobacterial strains decolorized the compounds.

[6] = tested on: Mycobacterium tuberculosis; assay: microbe, parasite or virus in culture; details: agar proportion
M. tuberculosis = assay: microbe, parasite or virus in culture; type: cell-based, Mycobacterium tuberculosis; design: % Inhibit growth, H37Rv / % Inhibit growth, Susceptible / % Inhibit growth, MDR / % Inhibit growth, XDR / inhibition: dose or concentration left out as unconfirmed; details: for inhibition: Mycobacterium tuberculosis; for % Inhibit growth, MDR: MDR strain; for % Inhibit growth, Susceptible: Susceptible strain; for % Inhibit growth, XDR: XDR strain; for % Inhibit growth, H37Rv: strain H37Rv
[7] = read-out: % Inhibit growth, MDR
[8] = read-out: % Inhibit growth, XDR

SMILES	MIC [1]	MIC [2]	MIC [3]	MIC [4]	MIC [5]	inhibition (M. tuberculosis; [7])	inhibition (M. tuberculosis; [8])	% Inhibit growth, MDR (M. tuberculosis; agar proportion method)	% Inhibit growth, Susceptible (M. tuberculosis; agar proportion method)	% Inhibit growth, XDR (M. tuberculosis; agar proportion method)	% Inhibit growth, H37Rv (M. tuberculosis; agar proportion method)	other results
O=C(Nc1sc([N+](=O)[O-])cc1[N+](=O)[O-])c1ccoc1 [VPC16b1094]	16 µg/mL (≈ 56.5 µM)	2 µg/mL (≈ 7.06 µM)	2 µg/mL (≈ 7.06 µM)	4 µg/mL (≈ 14.1 µM)	16 µg/mL (≈ 56.5 µM)	100%	100%	–	–	–	–	MIC ([6]; H37RV, isolate H37Rv (Reference)): 4000 µg/mL (≈ 14100 µM); MIC ([6]; isolate 234 (MDR-TB)): 4000 µg/mL (≈ 14100 µM); MIC ([6]; isolate 283 (susceptible)): 4000 µg/mL (≈ 14100 µM); MIC ([6]; isolate 565 (MDR-TB)): 4000 µg/mL (≈ 14100 µM); MIC ([6]; isolate 694 (MDR-TB)): 4000 µg/mL (≈ 14100 µM); MIC ([6]; isolate 750 (MDR-TB)): 4000 µg/mL (≈ 14100 µM); MIC ([6]; isolate 823 (XDR-TB)): 4000 µg/mL (≈ 14100 µM); MIC ([6]; isolate 971 (MDR-TB)): 4000 µg/mL (≈ 14100 µM); Potency against M. tuberculosis in words (Table 1) (M. tuberculosis; agar proportion method): most potent
O=C(Nc1sc([N+](=O)[O-])cc1[N+](=O)[O-])c1cc(C(F)(F)F)ccc1Cl [VPC16b2026, 2-Chloro-N-(3,5-dinitrothiophen-2-yl)-5-(trifluoromethyl)benzamide]	16 µg/mL (≈ 40.4 µM)	0.25 µg/mL (≈ 0.632 µM)	4 µg/mL (≈ 10.1 µM)	8 µg/mL (≈ 20.2 µM)	31 µg/mL (≈ 78.3 µM)	–	–	–	–	–	–	–
NCCOc1ccccc1C(=O)Nc1sc([N+](=O)[O-])cc1[N+](=O)[O-] [VPC16b2031, 2-(2-Aminoethoxy)-N-(3,5-dinitrothiophen-2-yl)benzamide]	63 µg/mL (≈ 179 µM)	250 µg/mL (≈ 710 µM)	125 µg/mL (≈ 355 µM)	16 µg/mL (≈ 45.4 µM)	63 µg/mL (≈ 179 µM)	–	–	–	–	–	–	–
O=C(Nc1ncc([N+](=O)[O-])s1)c1cc2ccccc2s1 [VPC161180]	–	–	–	–	–	–	–	0%	0%	50%	80%	–
O=C(Nc1ncc([N+](=O)[O-])s1)c1cccc(C(F)(F)F)c1 [VPC161183, N-(5-Nitrothiazol-2-yl)-3-(trifluoromethyl)benzamide]	–	–	–	–	–	70%	50%	–	–	–	–	–
CC(C)(C)OC(=O)Nc1ccccc1C(=O)Nc1ncc([N+](=O)[O-])s1 [VPC162047, tert-Butyl 2-(5-nitrothiazol-2-ylcarbamoyl)phenylcarbamate]	–	–	–	–	–	92%	50%	–	–	–	–	–
CCCCCC(=O)Nc1nc(Cl)c([N+](=O)[O-])s1 [VPC162080]	–	–	–	–	–	–	–	95%	73%	90%	90%	Minimal Inhibitory Concentration, M. avium [1]: 125 µg/mL; Minimal Inhibitory Concentration, M. abscessus [2]: 0.25 µg/mL; Minimal Inhibitory Concentration, M. chelonae [3]: 16 µg/mL; Minimal Inhibitory Concentration, M. marinum [4]: 16 µg/mL; Minimal Inhibitory Concentration, M. smegmatis [5]: 125 µg/mL
O=C(Nc1nc(Cl)c([N+](=O)[O-])s1)c1ccccc1 [VPC162087]	–	–	–	–	–	–	–	100%	97%	100%	97%	Minimal Inhibitory Concentration, M. avium [1]: 125 µg/mL; Minimal Inhibitory Concentration, M. abscessus [2]: >250 µg/mL; Minimal Inhibitory Concentration, M. chelonae [3]: 16 µg/mL; Minimal Inhibitory Concentration, M. marinum [4]: 16 µg/mL; Minimal Inhibitory Concentration, M. smegmatis [5]: 31 µg/mL
O=C(Nc1nc(Cl)c([N+](=O)[O-])s1)c1cccc(C(F)(F)F)c1 [VPC162088]	250 µg/mL (≈ 711 µM)	0.5 µg/mL (≈ 1.42 µM)	63 µg/mL (≈ 179 µM)	31 µg/mL (≈ 88.1 µM)	31 µg/mL (≈ 88.1 µM)	90%	70%	–	–	–	–	–
